Source: ChEMBL document CHEMBL2177056, “Bis(arylvinyl)pyrazines, -pyrimidines, and -pyridazines as imaging agents for tau fibrils and β-amyloid plaques in Alzheimer's disease models” (J Med Chem, 2012)
Active and inactive are the calls of the source. No cut-off for these calls is given here.

Tests used:
[1] = tested on: HepG2; assay: Cytotoxicity against human HepG2 cells; assay type: cell-based
[2] = tested on: Mus musculus; assay: Binding affinity to amyloid beta plaque in transgenic mouse brain overexpressing APP Swedish mutant/PS1deltaE9 at 2 mg/kg, ip after 4 hrs by fluorescence microscopic analysis; assay type: functional, organism-based; set-up: dose 2 mg/kg
[3] = target: T1, Microtubule-associated protein tau (Homo sapiens, UniProt P10636); assay: Displacement of thiazene red from tau aggregate
T1 sequence (P10636 whole entry): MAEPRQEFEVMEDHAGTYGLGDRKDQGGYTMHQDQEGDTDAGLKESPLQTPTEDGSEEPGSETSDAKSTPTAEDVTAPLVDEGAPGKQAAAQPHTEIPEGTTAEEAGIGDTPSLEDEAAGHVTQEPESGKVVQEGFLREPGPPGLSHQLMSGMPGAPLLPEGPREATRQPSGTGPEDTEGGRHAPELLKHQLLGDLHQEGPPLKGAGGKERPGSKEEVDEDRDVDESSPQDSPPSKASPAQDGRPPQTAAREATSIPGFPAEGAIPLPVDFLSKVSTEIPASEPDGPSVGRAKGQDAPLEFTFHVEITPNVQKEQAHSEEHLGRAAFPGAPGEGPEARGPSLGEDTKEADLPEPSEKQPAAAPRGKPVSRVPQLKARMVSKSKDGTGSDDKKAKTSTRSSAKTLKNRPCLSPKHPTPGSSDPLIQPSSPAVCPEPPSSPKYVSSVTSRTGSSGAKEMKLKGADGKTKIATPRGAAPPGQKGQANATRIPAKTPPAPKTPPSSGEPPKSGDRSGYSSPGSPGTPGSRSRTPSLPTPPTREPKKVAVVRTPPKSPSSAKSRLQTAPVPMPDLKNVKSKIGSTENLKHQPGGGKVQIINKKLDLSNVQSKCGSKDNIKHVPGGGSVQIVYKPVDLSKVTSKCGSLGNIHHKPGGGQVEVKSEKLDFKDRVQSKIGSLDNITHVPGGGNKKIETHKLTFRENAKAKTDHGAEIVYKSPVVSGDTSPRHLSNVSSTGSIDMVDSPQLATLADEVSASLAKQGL

[4] = Displacement of thiazene red from amyloid beta (1 to 40) aggregate
[5] = target: T1, Microtubule-associated protein tau; assay: Binding affinity to extracellular tau plaques in Alzheimer patient brain by fluorescence microscopic analysis
[6] = target: T1, Microtubule-associated protein tau; assay: Binding affinity to intracellular fibrillar tau in Alzheimer patient brain by fluorescence microscopic analysis; assay type: cell-based
[7] = target: T1, Microtubule-associated protein tau; assay: Binding affinity to tau aggregate in Alzheimer patient bowmans gland of olfactory epithelium
[8] = Selectivity ratio of IC50 for tau aggregate to IC50 for amyloid beta (1 to 40) aggregate
[9] = Displacement of methoxy-XO4 from amyloid beta (1 to 40) aggregate
[10] = target: Amyloid-beta precursor protein (Homo sapiens) (UniProt P05067); assay: Binding affinity to intravascular amyloid beta angiopathies in Alzheimer patient brain by fluorescence microscopic analysis
Chain of Amyloid-beta precursor protein (Homo sapiens) (P05067 whole entry): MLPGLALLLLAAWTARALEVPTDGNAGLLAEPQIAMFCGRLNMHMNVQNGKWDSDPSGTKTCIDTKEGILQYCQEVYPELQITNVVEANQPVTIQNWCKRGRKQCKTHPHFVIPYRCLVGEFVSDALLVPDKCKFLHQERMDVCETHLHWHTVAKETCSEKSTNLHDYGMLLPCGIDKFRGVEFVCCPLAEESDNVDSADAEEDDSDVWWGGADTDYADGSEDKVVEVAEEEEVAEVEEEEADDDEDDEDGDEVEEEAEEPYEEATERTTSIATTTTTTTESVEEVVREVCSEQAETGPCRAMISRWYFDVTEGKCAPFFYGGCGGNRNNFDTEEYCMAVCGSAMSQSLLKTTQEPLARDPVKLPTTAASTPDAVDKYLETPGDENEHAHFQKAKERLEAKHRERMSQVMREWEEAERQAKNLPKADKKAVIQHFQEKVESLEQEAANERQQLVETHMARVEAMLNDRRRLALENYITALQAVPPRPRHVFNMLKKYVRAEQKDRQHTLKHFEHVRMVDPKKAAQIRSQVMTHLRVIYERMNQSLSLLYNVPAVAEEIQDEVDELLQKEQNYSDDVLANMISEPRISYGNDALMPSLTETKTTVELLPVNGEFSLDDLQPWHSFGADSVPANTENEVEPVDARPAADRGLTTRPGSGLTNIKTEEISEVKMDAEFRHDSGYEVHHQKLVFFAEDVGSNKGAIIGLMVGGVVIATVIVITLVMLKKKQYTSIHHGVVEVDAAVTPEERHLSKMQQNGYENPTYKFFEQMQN

[11] = target: Amyloid-beta precursor protein (Homo sapiens) (UniProt P05067); assay: Binding affinity to extracellular amyloid beta plaques in Alzheimer patient brain by fluorescence microscopic analysis
[12] = Lipophilicity, log P of the compound; assay type: physicochemical; conditions: octanol/water
[13] = Selectivity ratio of IC50 for amyloid beta (1 to 40) aggregate to IC50 for tau aggregate

Row | Structure (SMILES) | IC50 ([3]; read-out: IC50) | IC50 ([4]; read-out: IC50) | Activity [5] | Activity [6] | also measured
1 | CN(C)c1ccc(/C=C/c2cc(/C=C/c3ccc(N(C)C)cc3)ncn2)cc1 | 4 nM | 54 nM | Active | Active | Activity [7]: Active; Activity [1]: Non-toxic; Activity [2]: Active; Ratio IC50 [8]: 13.5
2 | [11CH3]Oc1cc(/C=C/c2ccc(O)cc2)ccc1/C=C/c1ccc(O)cc1 |  |  |  |  | Ki [9]: 26.8 nM
3 | COc1ccc(-c2cc(/C=C/c3ccc(N(C)C)cc3)nnc2/C=C/c2ccc(N(C)C)cc2)cc1 | 1590 nM | 4570 nM | Active | Active | 
4 | CN(C)c1ccc(/C=C/c2cnc(/C=C/c3ccc(N(C)C)cc3)cn2)cc1 |  |  | Active | Active | Activity [2]: Active; Activity [10]: Active; Activity [11]: Active
5 | CN(C)c1ccc(/C=C/c2cc(-c3ccccc3)c(/C=C/c3ccc(N(C)C)cc3)nn2)cc1 |  |  | Active | Active | IC50 [3]: Not Active; IC50 [4]: Not Active
6 | CN(C)c1ccc(/C=C/C=C/c2cc(/C=C/C=C/c3ccc(N(C)C)cc3)ncn2)cc1 | 2 nM | 3 nM | Active | Active | 
7 | CN(C)c1ccc(/C=C/c2cc(-c3ccccc3F)c(/C=C/c3ccc(N(C)C)cc3)nn2)cc1 | 1250 nM | 10100 nM | Active | Active | 
8 | Cn1cccc1/C=C/c1cc(-c2ccccc2)c(/C=C/c2cccn2C)nn1 |  |  | Active | Active | IC50 [3]: Not Active; IC50 [4]: Not Active
9 | COc1cc(/C=C/c2ccc(O)cc2)ccc1/C=C/c1ccc(O)cc1 | 246 nM | 140 nM |  |  | logP [12]: 2.6; Ratio IC50 [13]: 1.8
10 | Cn1cccc1/C=C/c1cnc(/C=C/c2cccn2C)cn1 |  |  | Active | Active | 

Now from value to molecule, other results behind:

Row | IC50 ([3]; read-out: IC50) | IC50 ([4]; read-out: IC50) | Activity [5] | Activity [6] | Structure (SMILES) | also measured
11 | 2 nM | 52 nM | Active | Active | C(=C\c1cc(/C=C/c2ccc(N3CCCC3)cc2)ncn1)/c1ccc(N2CCCC2)cc1 | Activity [1]: Non-toxic; Activity [2]: inactive
12 |  |  | Active | Active | C(=C\c1cnc(/C=C/c2ccc(N3CCCCC3)cc2)cn1)/c1ccc(N2CCCCC2)cc1 | 
13 | 4710 nM | 7590 nM | Active | Active | C(=C\c1cc(-c2ccccc2)c(/C=C/c2ccc(N3CCOCC3)cc2)nn1)/c1ccc(N2CCOCC2)cc1 | 
14 | 6 nM | 43 nM | Active | Active | C(=C\c1cnc(/C=C/c2ccc(N3CCOCC3)cc2)cn1)/c1ccc(N2CCOCC2)cc1 | 
15 | 13 nM | 17 nM | Active | Active | COc1ccc(/C=C/c2cnc(/C=C/c3ccc(OC)cc3)cn2)cc1 | 
16 |  |  | Active | Active | CC(C)c1ccc(/C=C/c2cnc(/C=C/c3ccc(C(C)C)cc3)cn2)cc1 | IC50 [3]: Not Active; IC50 [4]: Not Active
17 | 17 nM | 156 nM | Active | Active | C(=C\c1cc(/C=C/c2ccc(N3CCCCC3)cc2)ncn1)/c1ccc(N2CCCCC2)cc1 | 
18 | 7470 nM | 2380 nM | Active | Active | CN1CCN(c2ccc(/C=C/c3cc(/C=C/c4ccc(N5CCN(C)CC5)cc4)ncn3)cc2)CC1 | 
19 | 42 nM | 51 nM | Active | Active | CN1CCN(c2ccc(/C=C/c3cnc(/C=C/c4ccc(N5CCN(C)CC5)cc4)cn3)cc2)CC1 | 
20 |  |  | Active | Active | C(=C\c1cnc(/C=C/c2ccc(N3CCCC3)cc2)cn1)/c1ccc(N2CCCC2)cc1 | 
21 |  |  | Active | Active | C(=C\c1cc(/C=C/c2ccc(N3CCOCC3)cc2)ncn1)/c1ccc(N2CCOCC2)cc1 | IC50 [3]: Not Active; IC50 [4]: Not Active
